Results: PMC11866022, “Long-Chain Cyclic Arylguanidines as Multifunctional Serotonin Receptor Ligands with Antiproliferative Activity” (ACS Omega, 2025)

How the values were obtained:
5-HT1A = target: T1, 5-HT1A (Homo sapiens, UniProt P08908); experiment: Radioligand binding assay, 5-HT1A ([3H]-8-OHDPAT); conditions: Table 3, unit inferred; 2.5 nM [3H]-8-OHDPAT
T1 construct: expressed in transfected cells; host or cells: HEK293
T1 sequence (P08908 1-422): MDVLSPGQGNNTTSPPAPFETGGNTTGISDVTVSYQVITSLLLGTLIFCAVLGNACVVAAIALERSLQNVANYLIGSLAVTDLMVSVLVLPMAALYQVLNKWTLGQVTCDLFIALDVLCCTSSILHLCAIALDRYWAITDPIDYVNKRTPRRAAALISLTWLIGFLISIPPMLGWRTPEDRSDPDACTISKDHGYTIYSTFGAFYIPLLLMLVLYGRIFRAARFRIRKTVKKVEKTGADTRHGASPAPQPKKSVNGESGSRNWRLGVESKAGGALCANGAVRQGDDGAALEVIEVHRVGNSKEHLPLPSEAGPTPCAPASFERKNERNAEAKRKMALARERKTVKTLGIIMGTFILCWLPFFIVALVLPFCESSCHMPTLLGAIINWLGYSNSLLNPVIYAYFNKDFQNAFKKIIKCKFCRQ
Procedure: (§1) Their functional activity was also evaluated by assessing their ability to inhibit agonist-induced cAMP production in HEK293 cells (Table 3). Extended radioisotope tests were aimed at detecting potential affinity for other aminergic receptors, whose role in cancer treatment may be important. Functions were tested for all receptors. The essence of functional tests results from the fact that serotonin stimulates tumor progression. Therefore, the ligand should have the potential to reduce its concentration, i.e., act as an antagonist.[39]
(§2) The detailed procedure is presented in previous publications.[53] Assays were performed by incubating for 1 h at 37 °C (room temperature for 5-HT1A) in 200 μL volumes on 96-well plates. The reaction was terminated by rapid filtration using Unifilter plates, and radioactivity on the filters was measured with a PerkinElmer Microbeta plate reader. Radioligands used were:
(§3) Eight concentrations (10^–4 to 10^–11 M) were tested in triplicate for each compound. Inhibition constants (Ki) were calculated using the Cheng–Prusoff equation.[54] The results are expressed as the means of at least two independent experiments.

[1] = system: AsPC-1 pancreatic cancer cells; experiment: Antiproliferative activity (MTS), AsPC-1; assay type: cell-based, human; conditions: Homo sapiens, ASPC1; MTS assay, 72 h
Procedure: (§4) The chosen group of ligands was further examined for their ability to inhibit proliferation across multiple cancer cell lines related to the CNS system (1321N1, U87MG, LN-229, and U-251). These cell lines were characterized by different mutation profiles, the main one being the variable status of the p53 protein. In detail, U87MG cells have a wild-type p53 protein, while astrocytoma and the rest of GBM cells harbor mutated p53 protein. Additional assays were performed on MCF7 breast cancer and AsPC-1 pancreatic cancer cells. The wide range of tested lines was aimed at screening the anticancer potential of the tested compounds. The first represents one of the most common and the second one of the most aggressive cancers in the world. Comparing the activity of compounds on GBM cells to other types of cancer may reveal their selectivity and usefulness in targeted therapies. The cytotoxicity of the compounds on normal human astrocytes (NHA) and Feline catus astrocyte (PG-4) was determined. Tests on normal lines serve to verify the potential toxicity of the tested compounds on healthy cells. Due to the targeting of CNS tumors, astrocytes were selected as normal lines.
The detailed procedure is presented in previous publications.[53] Briefly, the study utilized various human cancer and normal cell lines, including LN-229 (glioblastoma), MCF7 (breast carcinoma), HepG2 (hepatoma), U-251 (glioblastoma), U87MG (glioblastoma), AsPC-1 (pancreatic adenocarcinoma), and NHA (normal human astrocytes). Cells were cultured in appropriate media, supplemented with FBS, antibiotics, and other supplements, and incubated at 37 °C with 5% CO2. Compounds were dissolved in DMSO, prepared at various concentrations (1–25 μM), and applied to the cells for 72 h. Cell viability was assessed using the MTS assay, and the inhibitory concentration (IC50) was calculated using GraphPad Prism 8.0. Each compound was tested in triplicate across multiple experiments.

5-HT6 = target: T2, 5-HT6 (Homo sapiens, UniProt P50406); experiment: Functional cAMP assay (LANCE Ultra), 5-HT6; assay type: cell-based; conditions: for function at 5-HT6: in words; for Kb: Table 3, unit inferred, cAMP, antagonist mode, 5-CT
T2 construct: expressed in transfected cells; host or cells: HEK293
T2 sequence (P50406 whole entry): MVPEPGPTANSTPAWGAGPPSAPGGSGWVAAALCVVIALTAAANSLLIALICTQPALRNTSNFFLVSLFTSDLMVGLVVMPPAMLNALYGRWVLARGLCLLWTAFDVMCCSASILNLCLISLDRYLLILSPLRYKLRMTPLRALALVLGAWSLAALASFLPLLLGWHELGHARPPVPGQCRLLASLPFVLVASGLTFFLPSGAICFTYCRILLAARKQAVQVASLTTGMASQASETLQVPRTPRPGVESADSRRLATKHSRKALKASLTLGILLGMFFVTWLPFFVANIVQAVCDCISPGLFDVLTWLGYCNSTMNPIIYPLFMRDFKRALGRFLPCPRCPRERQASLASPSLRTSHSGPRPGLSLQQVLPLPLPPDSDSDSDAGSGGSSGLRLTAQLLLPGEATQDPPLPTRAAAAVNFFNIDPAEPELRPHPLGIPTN
Procedure: as §1
The detailed procedure is presented in previous publications.[53] The functional activity of the compounds was assessed using the LANCE Ultra cAMP detection kit (PerkinElmer). […] For other receptors (5-HT7R, 5-HT1AR, and 5-HT6R), 5-CT was used at 10, 100, and 1000 nM, respectively. Each compound was tested in triplicate across eight concentrations. The inhibitory constant (Kb) for each antagonist was calculated using the Cheng–Prusoff equation.

5-HT5A = 5-HT5A (Homo sapiens, UniProt P47898); experiment: Radioligand binding assay, 5-HT5A ([3H]-LSD); conditions: Table 3, unit inferred; 3.5 nM [3H]-LSD
5-HT5A, sequence (P47898 whole entry, species assumed): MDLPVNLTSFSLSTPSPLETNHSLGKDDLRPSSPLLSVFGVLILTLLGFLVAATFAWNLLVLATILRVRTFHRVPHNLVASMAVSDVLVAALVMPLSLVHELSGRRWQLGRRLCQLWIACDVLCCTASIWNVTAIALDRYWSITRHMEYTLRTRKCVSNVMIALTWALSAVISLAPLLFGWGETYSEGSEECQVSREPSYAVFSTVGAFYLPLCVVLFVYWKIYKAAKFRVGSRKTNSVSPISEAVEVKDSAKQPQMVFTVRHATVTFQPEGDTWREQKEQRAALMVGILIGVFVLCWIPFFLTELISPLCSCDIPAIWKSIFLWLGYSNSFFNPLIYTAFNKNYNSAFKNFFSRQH
Procedure: as §1, §2, §3

U-251 glioblastoma cells = experiment: Antiproliferative activity (MTS), U-251; assay type: cell-based, human; conditions: Homo sapiens, U-251; MTS assay, 72 h
Procedure: as §4, with “These” for “The chosen group of ligands was further examined for their ability to inhibit proliferation across multiple cancer cell lines related to the CNS system (1321N1, U87MG, LN-229, and U-251). These”
The detailed procedure is presented in previous publications.[53] […] Cells were cultured in appropriate media, supplemented with FBS, antibiotics, and other supplements, and incubated at 37 °C with 5% CO2. […] Cell viability was assessed using the MTS assay, and the inhibitory concentration (IC50) was calculated using GraphPad Prism 8.0. Each compound was tested in triplicate across multiple experiments.

HepG2 hepatoma cells = experiment: Hepatotoxicity (MTS), HepG2; assay type: cell-based, human; conditions: 48 h; for hepatotoxic effect on HepG2: 1–10 μM; for HepG2 cell viability: 50 or 100 μM
Procedure: As a next step, we decided to investigate the potential toxicity of our lead compounds by assessing their toxic effects on the liver (in vitro), heart, and brain (in vivo). The safety profile was assessed through a hepatotoxicity assay using HepG2 hepatoma cells. (Figures 2E,F, 3E,F).

in vitro = conditions: PAMPA
[2] = system: HSA and AGP in a ratio 24:1; experiment: TRANSILXL PPB plasma protein binding assay; conditions: Figures S149, S150

Structure (SMILES) | IC50 [1] | IC50 (U-251 glioblastoma cells) | amount remaining after incubation with human plasma proteins (UPLC) [2] | Ki (5-HT1A) | function at 5-HT6 (5-HT6) | Ki (5-HT5A) | Kb (5-HT6) | hepatotoxic effect on HepG2 (HepG2 hepatoma cells) | HepG2 cell viability (HepG2 hepatoma cells) | Papp (in vitro) | cytotoxic effect on HepG2 (HepG2 hepatoma cells; 10 μM)
O=S(=O)(c1cccc2ccccc12)N1CCN(CCNC2=Nc3ccccc3CN2)CC1 [PP 6, N-{2-[4-(Naphthalene-1-sulfonyl)piperazin-1-yl]ethyl}-3,4-dihydroquinazolin-2-amine] | > 25 µM | > 25 µM | – | 0.042 µM | agonist | 0.328 µM | – | – | – | – | –
CC1NC(NCCCCCCNS(=O)(=O)c2cccc3ccccc23)=Nc2ccccc21 (stereo not drawn) [PP 10, N-{6-[(4-Methyl-3,4-dihydroquinazolin-2-yl)amino]hexyl}naphthalene-1-sulfonamide] | > 25 µM | > 25 µM | – | 0.165 µM | antagonist | 0.059 µM | 0.036 µM | no hepatotoxic effects | statistically significant decrease in cell viability | 0.03 ×10⁻⁶ cm/s | –
O=S(=O)(NCCCCCCNc1ncc2ccccc2n1)c1cccc2ccccc12 [PP 15, N-{6-[(Quinazolin-2-yl)amino]hexyl}naphthalene-1-sulfonamide] | > 25 µM | > 25 µM | – | 7.16 µM | antagonist | 1.09 µM | 0.048 µM | no hepatotoxic effects | statistically significant decrease in cell viability | 0.13 ×10⁻⁶ cm/s | –

More lines, main results first:

IC50 [1] | IC50 (U-251 glioblastoma cells) | amount remaining after incubation with human plasma proteins (UPLC) [2] | Structure (SMILES) | Ki (5-HT1A) | function at 5-HT6 (5-HT6) | Ki (5-HT5A) | Kb (5-HT6) | hepatotoxic effect on HepG2 (HepG2 hepatoma cells) | HepG2 cell viability (HepG2 hepatoma cells) | Papp (in vitro) | cytotoxic effect on HepG2 (HepG2 hepatoma cells; 10 μM)
14.6 ± 0.5 µM | > 25 µM | COMPOUND NOT DETECTED | CC1NC(NCCCCCCNS(=O)(=O)c2c(Cl)ccc3ccccc23)=Nc2ccccc21 (stereo not drawn) [PP 13, 2-Chloro-N-{6-[(4-methyl-3,4-dihydroquinazolin-2-yl)amino]hexyl}naphthalene-1-sulfonamide] | 0.019 µM | agonist | – | – | no hepatotoxic effects | statistically significant decrease in cell viability | 0.19 ×10⁻⁶ cm/s | –
12.1 ± 1 µM | 16.5 ± 1 µM | COMPOUND NOT DETECTED | O=S1(=O)c2cccc3cccc(c23)N1CCCCCCNC1=Nc2ccccc2CN1 [PP 24, 3-{6-[(3,4-Dihydroquinazolin-2-yl)amino]hexyl}-2λ^6-thia-3-azatricyclo[6.3.1.0^4,^12]dodeca-1(11),4(12),5,7,9-pentaene-2,2-dione] | – | – | – | – | – | – | 0.73 ×10⁻⁶ cm/s | strong cytotoxic effect
